Assay results: patent US10493099B2, “Compositions containing arsenic and their use in methods of treatment” (Eupharma Pty Ltd, priority 2015, dated 2019)

Legend:
[1] = cited from earlier work
[2] = Dissolution studies of arsenic salts in 100 mL water with stirring at room temperature (pH 7 and pH 1-2); assay type: physicochemical; conditions: for Dissolution Time at pH 1-2 / Dissolution Time at pH 7 / Final pH after dissolution: 100 mL, stirring, room temperature
[3] = all three mediums: simulated gastric fluid pH 1.24, pH 4.5, pH 7.0; 150 mls, 37° C., spin bar
Protocol: 100 mg of arsenic trioxide was dissolved in 10 mL of 0.5M NaOH with heat (<ten minutes). 250 mg Sodium Carbonate was then added (dissolves almost straight away) and excess water evaporated.
Dissolution experiments were then carried out on the AC01 at 3 different pH levels. […] Prior to addition of the capsules 150 mls of the dissolution solution was heated to 37° C. and the solution contained a spin bar at a speed of 2. The appropriate capsule was then added.

[4] = Dissolution of arsenic trioxide in 0.1M NaOH (pH 13); assay type: physicochemical
Protocol: A further dissolution experiment was conducted in a solution of 0.1M NaOH (pH 13) and, as expected, more arsenic trioxide could be dissolved with a 100% level reached between 15-20 minutes as indicated in the table below.

[5] = Dissolution of 1 mg arsenic trioxide capsule in 0.1M HCl and purified water with 0.5% BKC; assay type: physicochemical; conditions: 1 mg capsule RX500950.01, 500 ml medium, 37° C., paddle 50 rpm
Protocol: To manufacture the components for insertion into the capsule all ingredients were sieved through a 500 μm sieve into a sealable jar and blended for 20 minutes in a tumble blender. The blended powder was filled into the Size 4 white hard gelatin capsules at a fill weight of 140 mg.
For the dissolution experiments the medium was 0.1M HCl and purified water with a volume of 500 ml also containing 0.5% benzalkonium chloride (BKC) at 37° C. The paddle stir speed was 50 rpm. The capsule shell disrupted within three minutes and all contents were expelled in less than five minutes. Only 5% arsenic trioxide was dissolved after 20 minutes. Even after 19 hours only 60% was dissolved. The presence of the citric acid reduced the pH of the medium from ˜8.0 to ˜7.3. Given the anticipated increase in solubility at a higher pH, these experiments were repeated at a higher pH as indicated in the tables below wherein the mean and range values represented percentage dissolution of the arsenic trioxide.

[6] = Trial 1: test dissolution of arsenic trioxide solely in sodium bicarbonate solution; assay type: physicochemical; conditions: 50 mg in 2540 mg sodium bicarbonate / approximately 27.2 mls water, with heating
Protocol: 2540 mg of Sodium Bicarbonate was dissolved in approximately 27.2 mls water (dissolved in less than 5 minutes). 50 mg Arsenic Trioxide was then added to this bicarbonate solution.

[7] = not dissolved within the time given

For `O=C([O-])O.[Na+]` [Sodium Bicarbonate], the “pH 0.1M solution” value [1] is given as 8.3.
With Sodium arsenic carbonate [AC01] the “Dissolution Time at pH 1-2” value [2] was <5-10 seconds - Final pH, the “Dissolution Time at pH 7” value [2] was 40 seconds - Final pH after and the “Final pH after dissolution” value ([2]; dissolution at pH 1-2) was “after dissolution = 1.13”. The “Final pH after dissolution” value ([2]; dissolution at pH 7) was “dissolution = pH 8.95” and the “Time to dissolution of powder from capsule” value [3] was “less than two”.
With Arsenic trioxide the “Time at which 100% dissolution level is reached” value [4] was 15 to 20 min, the “% Recovered (weight Corrected) Mean” value ([4]; 5 minutes) was 12% and the “% Recovered (weight Corrected) Mean” value ([4]; 10 minutes) was 65%. For the same compound, the “% Recovered (weight Corrected) Mean” value ([4]; 15 minutes) was 96%, the “% Recovered (weight Corrected) Mean” value ([4]; 20 minutes) was 109% and the “% Recovered (weight Corrected) Mean” value ([4]; 25 minutes) was 116%. For the same compound, the “% Recovered (weight Corrected) Mean” value ([4]; 30 minutes) was 114%, the arsenic trioxide dissolved ([5]; after 20 minutes) was 5% and the arsenic trioxide dissolved ([5]; after 19 hours) was 60%. For the same compound, the “Dissolution in sodium bicarbonate solution” value [6] was “would not dissolve even with heating”, the “Dissolution Time at pH 1-2” value [2, 7] was “Not dissolved in 3 hours” and the “Dissolution Time at pH 7” value [2, 7] was “Not dissolved in 3 hours”.
With `O=[As][O-].[Na+]` [Sodium meta arsenite, sodium meta arsenite] the “Dissolution Time at pH 1-2” value [2] was 55 seconds - Final pH after, the “Final pH after dissolution” value ([2]; dissolution at pH 1-2) was “dissolution = 1.27” and the “Final pH after dissolution” value ([2]; dissolution at pH 7) was “pH after dissolution = 10.2”. The “Time to dissolve at pH 1-2” value ([2]; pH 1-2) was “less than one” and the “Time to dissolve at pH 7” value ([2]; pH 7) was “less than 2 minutes”.
